Earlier results, collected in paper PMC12805357, “Cooperative ligand binding in a bacterial heme-based oxygen sensor” (The Journal of Biological Chemistry, 2025).

Legend:
[1] = parameters: method as in earlier work; details: myoglobins; ref 7 of the supplement (Faulkner et al., 1995)
[2] = sperm whale myoglobin

n (Hill coefficient), O2 binding [2]: 0.95 ± 0.05 | Kd ([2]; read-out: Kd, equilibrium oxygen affinity): 0.83 to 1.5 µM
Substance: sperm whale myoglobin (swMb): sperm whale myoglobin, literature comparison protein
Midpoint 1 (mV vs SHE) [1]: 47 mV vs SHE
